Molecules are shown by their SMILES. Some results are limits rather than exact numbers.

From BindingDB's records for doi:10.3109/14756366.2010.521745 (Sun Yat-Sen University, 2011) come the findings set out here.

For this assay, the target named is T1, Polyphenol oxidase 1 (White button mushroom, UniProt Q00024).
T1 sequence (Q00024 whole entry): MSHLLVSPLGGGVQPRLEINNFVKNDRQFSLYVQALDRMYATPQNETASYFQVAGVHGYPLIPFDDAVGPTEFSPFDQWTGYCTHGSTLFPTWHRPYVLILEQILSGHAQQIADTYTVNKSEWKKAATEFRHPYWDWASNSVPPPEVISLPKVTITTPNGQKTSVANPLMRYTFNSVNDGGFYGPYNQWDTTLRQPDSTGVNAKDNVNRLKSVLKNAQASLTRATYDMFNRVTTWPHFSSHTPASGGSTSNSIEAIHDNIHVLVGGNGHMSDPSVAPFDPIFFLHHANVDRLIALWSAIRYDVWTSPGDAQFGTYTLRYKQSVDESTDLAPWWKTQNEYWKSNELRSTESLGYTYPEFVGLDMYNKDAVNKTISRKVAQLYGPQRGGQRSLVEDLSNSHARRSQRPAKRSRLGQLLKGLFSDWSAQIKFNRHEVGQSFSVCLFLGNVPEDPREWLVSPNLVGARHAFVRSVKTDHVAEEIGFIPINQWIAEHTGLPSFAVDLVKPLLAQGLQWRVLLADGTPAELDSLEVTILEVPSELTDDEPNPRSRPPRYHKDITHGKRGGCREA
Description: Tyrosinase Inhibition Assay. Conditions: pH 6.8; 25 °C. Here is the method: In brief, a 10 μL sample was added to an assay mixture containing with 10 μL tyrosinase solution (0.5 mg/mL) and 900 μL phosphate buffer (pH 6.8) to a total volume assay mixture of 920 μL, for 20 min at 25°C. Then 80 μL of L-dopa (1.50 mg/mL) was added to the reaction mixture and the enzyme reaction was monitoredby measuring the change in absorbance at 475 nm of the L-dopa for 1 min.

With `O=C(c1ccccc1)c1cccc(O)c1O` [Polyhydroxy benzophenone, 18], the IC50 is > 200 µM.
Take `O=C(c1ccc(O)cc1O)c1ccc(O)c(O)c1O` [Polyhydroxy benzophenone, 8]: 10.1 µM corresponded to half-maximal inhibition (IC50).
Then `COc1cc(C(=O)c2ccc(O)cc2O)ccc1O` [Polyhydroxy benzophenone, 5], with > 200 µM.
On to `O=C(c1ccc(O)cc1)c1cc(O)c(O)c(O)c1` [Polyhydroxy benzophenone, 14], for which half-maximal inhibition (IC50) required 98.3 µM.
For `O=C(c1cc(O)c(O)c(O)c1)c1ccc(O)c(O)c1O` [Polyhydroxy benzophenone, 10] the value was 1.4 µM.
Compound `COc1cc(C(=O)c2ccc(O)c(O)c2O)ccc1O` [Polyhydroxy benzophenone, 9] came in with an IC50 of 6.4 µM.
Then `O=C(c1ccc(O)cc1)c1ccc(O)c(O)c1O` [hsp90_136], with > 100 µM; and `O=C(c1ccc(O)cc1O)c1ccc(O)cc1O` [Polyhydroxy benzophenone, 4], with > 200 µM; and `O=C(c1ccccc1)c1c(O)cc(O)cc1O` [Polyhydroxy benzophenone, 16], with > 200 µM.
In the case of `O=C(c1ccccc1)c1ccc(O)c(O)c1O` [phenyl(2,3,4-trihydroxyphenyl)methanone], the IC50 came to 10.5 µM.
In the case of `O=C(c1cccc(O)c1)c1ccc(O)cc1O` [Polyhydroxy benzophenone, 12], the IC50 was > 200 µM.
On to `O=C(c1ccc(O)cc1O)c1c(O)cc(O)cc1O` [Polyhydroxy benzophenone, 11], for which the IC50 was > 200 µM.
For `O=C(c1cc(O)c(O)c(O)c1)c1ccc(O)cc1O` [Polyhydroxy benzophenone, 6], the IC50 came out at 17.4 µM.
For the compound `O=C(c1ccccc1O)c1ccc(O)c(O)c1O` [Polyhydroxy benzophenone, 15], half-maximal inhibition (IC50) was put at 8.8 µM.
